Consider one compound from PMC10509167, “Identification and characterization of endo-α-, exo-α-, and exo-β-D-arabinofuranosidases degrading lipoarabinomannan and arabinogalactan of mycobacteria” (Nature Communications, 2023).

The target in this experiment is T1, EndoMA1 (MIAR_33230) (Microbacterium arabinogalactanolyticum, UniProt A0AAJ6N6D4).
T1 construct: 53,678 Da monomer, dimer; catalytic domain plus putative CBM
Description: X-ray crystallography ([…] Å). Type of experiment: binding. Conditions: co-crystallized with A9LT; second site, putative CBM domain; possible crystal packing artifact.

T1 sequence (A0AAJ6N6D4 entry or part of it): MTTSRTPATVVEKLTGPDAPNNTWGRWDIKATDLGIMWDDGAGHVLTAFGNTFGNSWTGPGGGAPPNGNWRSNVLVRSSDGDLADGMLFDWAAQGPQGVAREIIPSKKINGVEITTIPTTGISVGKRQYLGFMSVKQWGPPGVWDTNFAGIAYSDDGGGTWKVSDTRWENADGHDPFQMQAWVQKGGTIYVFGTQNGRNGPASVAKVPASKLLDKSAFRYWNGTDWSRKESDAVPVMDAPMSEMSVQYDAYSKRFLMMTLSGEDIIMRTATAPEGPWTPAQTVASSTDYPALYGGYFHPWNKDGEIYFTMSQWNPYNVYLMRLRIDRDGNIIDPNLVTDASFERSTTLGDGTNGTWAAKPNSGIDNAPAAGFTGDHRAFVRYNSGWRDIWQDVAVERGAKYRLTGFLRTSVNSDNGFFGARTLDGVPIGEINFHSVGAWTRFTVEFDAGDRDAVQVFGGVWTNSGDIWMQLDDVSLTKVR

`OC[C@H]1O[C@H](OC[C@H]2O[C@H](OC[C@H]3O[C@H](OC[C@H]4OC(O)[C@@H](O)[C@@H]4O)[C@@H](O)[C@@H]3O)[C@@H](O)[C@@H]2O)[C@@H](O)[C@@H]1O` (stereo partly shown) [A4L]: the “X-ray crystallography (1.80 Å)” value was “The A4L molecule is bound to the shallow surface of the putative CBM domain”.
